Starred links: 1 amine or outer side, 2 acyl side, 3 side chain; linkers in the order of their positions; H or OH if unused. Positions of bridges follow the written chain, without caps; N, C: chain ends. Non-standard residues stand in square brackets, D forms with d. Residues, ends and D or L forms follow the SMILES beside them. *: point of attachment. hPhe(3-Cl-4-CF3) = N[C@@H](CCc1ccc(C(F)(F)F)c(Cl)c1)C(=O)O; hPhe(3-F,4-CF3) = N[C@@H](CCc1ccc(C(F)(F)F)c(F)c1)C(=O)O; NMePhe(4-CF3) = CN[C@@H](Cc1ccc(C(F)(F)F)cc1)C(=O)O; hPhe(4-CF3) = N[C@@H](CCc1ccc(C(F)(F)F)cc1)C(=O)O; 3Oxa8azabicyclo(3.2.1)octane = C1CC2COCC1N2*; NMePhe(4-Cl) = CN[C@@H](Cc1ccc(Cl)cc1)C(=O)O; NMePhe(2-CN) = CN[C@@H](Cc1ccccc1C#N)C(=O)O; NMedβ3hAla = C[C@H](CC(=O)[*:2])N(C)[*:1]; X22 = O=C([C@@H]1Cc2ccccc2N1[*:1])[*:2]; Phe(3-I) = N[C@@H](Cc1cccc(I)c1)C(=O)O; NMehPhe = CN[C@@H](CCc1ccccc1)C(=O)O; NMeCha = CN[C@@H](CC1CCCCC1)C(=O)O; NMeChg = CN[C@H](C(=O)O)C1CCCCC1; NMeF = CN[C@@H](Cc1ccccc1)C(=O)O; NMeI = CC[C@H](C)[C@H](NC)C(=O)O; NMeD = CN[C@@H](CC(=O)O)C(=O)O; NMeL = CN[C@@H](CC(C)C)C(=O)O; NMeV = CN[C@H](C(=O)O)C(C)C; d(β3hA) = C[C@@H](N)CC(=O)O; Pip = O=C(O)[C@@H]1CCCCN1; dNMeS = CN[C@H](CO)C(=O)O; NMeA = CN[C@@H](C)C(=O)O; NMeAib = CNC(C)(C)C(=O)O; Piperidide = C1CCN(*)CC1; Pra = C#CC[C@H](N)C(=O)O; Ac5c = NC1(C(=O)O)CCCC1; Aze = O=C(O)[C@@H]1CCN1; Ac4c = NC1(C(=O)O)CCC1; Isopentyl = CC(C)CC*; βAla = NCCC(=O)O; Sar = CNCC(=O)O
Target: T1, Kras and SOS1 (biotin-tagged human Kras loaded with GDP, His-tagged human SOS1) (Homo sapiens, UniProt P01116, G12D)
T1 construct: made in house; host or cells: E. coli (stated for Kras only)
Assay: Protein-protein interaction inhibition between Kras and SOS1 (KrasGl2D-SOS PPI) using AlphaScreen
Type: binding
Details: AlphaScreen; biotin-tagged human Kras loaded with GDP, His-tagged human SOS1; read-out: KRAS G12D-SOS PPI IC50
Procedure, shortened: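 Binding between SOS1 and Kras is detected as bead-proximity luminescence: illuminate Ni-conjugated donors (680 nm), collect 520-620 nm emission from streptavidin-conjugated acceptors; Kras carries biotin and GDP loaded after purification, SOS1 carries a His tag.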

T1 sequence (P01116 1-188 isoform P01116-2 G12D): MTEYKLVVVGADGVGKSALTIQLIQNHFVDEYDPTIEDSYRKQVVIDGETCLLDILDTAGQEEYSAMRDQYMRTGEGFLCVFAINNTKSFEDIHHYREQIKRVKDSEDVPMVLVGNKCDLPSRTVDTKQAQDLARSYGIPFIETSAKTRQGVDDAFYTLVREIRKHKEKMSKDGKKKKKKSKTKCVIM

Point of comparison: `CC[C@H](C)[C@@H]1NC(=O)[C@H](CC(C)C)N(C)C(=O)C[C@@H](C(=O)N2C3CCC2COC3)N(C)C(=O)[C@H]([C@@H](C)CC)N(C)C(=O)C2(CCCC2)NC(=O)[C@@H]2CCCN2C(=O)[C@H](CCc2ccc(C(F)(F)F)c(Cl)c2)NC(=O)CN(C)C(=O)[C@H](Cc2ccc(C(F)(F)F)cc2)N(C)C(=O)[C@@H]2CCN2C(=O)[C@H](C)N(C)C1=O` [Compound 545] ([NMeL]I[NMeA][Aze][NMePhe(4-CF3)][Sar][hPhe(3-Cl-4-CF3)]P[Ac5c][NMeI][NMeD]-{3Oxa8azabicyclo(3.2.1)octane}; lactam N-11), IC50 1.1 nM. Against it:
- CC[C@H](C)[C@@H]1NC(=O)[C@H](CC(C)C)N(C)C(=O)C[C@@H](C(=O)N2CCCCC2)N(C)C(=O)[C@H](C2CCCCC2)N(C)C(=O)C2(CCCC2)NC(=O)[C@@H]2Cc3ccccc3N2C(=O)[C@H](CCc2ccc(C(F)(F)F)c(Cl)c2)NC(=O)CN(C)C(=O)[C@H](CC2CCCCC2)N(C)C(=O)CN(C)C(=O)CN(C)C1=O [Compound 514] ([NMeL]I[Sar][Sar][NMeCha][Sar][hPhe(3-Cl-4-CF3)][X22][Ac5c][NMeChg][NMeD]-Piperidide; lactam N-11) — 13-fold higher, 14 nM
- C#CC[C@@H]1NC(=O)[C@H](Cc2cccc(I)c2)NC(=O)CN(C)C(=O)[C@H](Cc2ccccc2)N(C)C(=O)[C@@H]2CCN2C(=O)[C@H](C)N(C)C(=O)[C@H]([C@@H](C)CC)NC(=O)[C@H](CC(C)C)N(C)C(=O)C[C@@H](C(=O)N2CCCCC2)N(C)C(=O)[C@H](CC(C)C)NC(=O)C(C)(C)N(C)C1=O [Compound 1313] ([NMeL]I[NMeA][Aze][NMeF][Sar][Phe(3-I)][Pra][NMeAib]L[NMeD]-Piperidide; lactam N-11) — 59-fold higher, 65 nM
- CC[C@H](C)[C@@H]1NC(=O)[C@H](C)N(C)C(=O)C[C@@H](C)NC(=O)[C@H](CC(C)C)N(C)C(=O)[C@H](Cc2ccccc2)N(C)C(=O)[C@@H]2CCCCN2C(=O)[C@H](CCc2ccc(C(F)(F)F)cc2)NC(=O)CN(C)C(=O)[C@H](Cc2ccc(Cl)cc2)N(C)C(=O)CN(C)C(=O)CN(C)C1=O [Compound 299] (cyclo(I[Sar][Sar][NMePhe(4-Cl)][Sar][hPhe(4-CF3)][Pip][NMeF][NMeL][d(β3hA)][NMeA])) — 120-fold higher, 130 nM
- CC[C@H](C)[C@@H]1NC(=O)[C@H](CC(C)C)N(C)C(=O)C[C@@H](C(=O)N2CCCCC2)N(C)C(=O)[C@H](C(C)C)N(C)C(=O)C2(CCCC2)NC(=O)[C@@H](COCCC(C)C)N(C)C(=O)[C@H](CCc2ccc(C(F)(F)F)c(Cl)c2)NC(=O)CN(C)C(=O)[C@H](CC2CCCCC2)N(C)C(=O)[C@@H]2CCN2C(=O)[C@H](C)N(C)C1=O [Compound 1437] ([NMeL]I[NMeA][Aze][NMeCha][Sar][hPhe(3-Cl-4-CF3)][dNMeS](Isopentyl)[Ac5c][NMeV][NMeD]-Piperidide; lactam N-11) — 74-fold higher, 81 nM
- CC[C@H](C)[C@@H]1NC(=O)[C@H](CC(C)C)N(C)C(=O)C[C@@H](C(=O)N2CCCCC2)N(C)C(=O)[C@H](C(C)C)N(C)C(=O)C2(CCCC2)NC(=O)[C@@H]2CCCN2C(=O)[C@H](CCc2ccc(C(F)(F)F)c(Cl)c2)NC(=O)CN(C)C(=O)[C@H](CC2CCCCC2)N(C)C(=O)[C@@H]2CCN2C(=O)[C@H](CCc2ccccc2)N(C)C1=O [Compound 1624] ([NMeL]I[NMehPhe][Aze][NMeCha][Sar][hPhe(3-Cl-4-CF3)]P[Ac5c][NMeV][NMeD]-Piperidide; lactam N-11) — 84-fold higher, 92 nM
- CC[C@H](C)[C@@H]1NC(=O)[C@H](CC(C)C)N(C)C(=O)C[C@@H](C)N(C)C(=O)[C@H](C(C)C)N(C)C(=O)C2(CCCC2)NC(=O)[C@@H]2CCCN2C(=O)[C@H](CCc2ccc(C(F)(F)F)c(Cl)c2)NC(=O)CN(C)C(=O)[C@H](Cc2ccccc2C#N)N(C)C(=O)CN(C)C(=O)CN(C)C1=O [Compound 357] (cyclo([Ac5c][NMeV][NMedβ3hAla][NMeL]I[Sar][Sar][NMePhe(2-CN)][Sar][hPhe(3-Cl-4-CF3)]P)) — 20-fold higher, 22 nM
- CC[C@H](C)[C@@H]1NC(=O)CCNC(=O)[C@H](Cc2ccccc2)N(C)C(=O)[C@H](C2CCCCC2)N(C)C(=O)C2(CCCC2)NC(=O)[C@@H]2CCCN2C(=O)[C@H](CCc2ccc(C(F)(F)F)c(Cl)c2)NC(=O)CN(C)C(=O)[C@H](CC2CCCCC2)N(C)C(=O)CN(C)C(=O)CN(C)C1=O [Compound 1007] (cyclo([Ac5c][NMeChg][NMeF][βAla]I[Sar][Sar][NMeCha][Sar][hPhe(3-Cl-4-CF3)]P)) — 12-fold higher, 13 nM
- CC[C@H](C)[C@@H]1NC(=O)[C@H](CC(C)C)N(C)C(=O)C[C@@H](C)NC(=O)[C@H](CC(C)C)N(C)C(=O)C2(CCC2)NC(=O)[C@@H]2CCCN2C(=O)[C@H](CCc2ccc(C(F)(F)F)c(F)c2)NC(=O)CN(C)C(=O)[C@H](CC2CCCCC2)N(C)C(=O)CN(C)C(=O)CN(C)C1=O [Compound 133] (cyclo([Ac4c][NMeL][d(β3hA)][NMeL]I[Sar][Sar][NMeCha][Sar][hPhe(3-F,4-CF3)]P)) — 21-fold higher, 23 nM

Source: patent US12371454B2, “Cyclic peptide compound having Kras inhibitory action” (priority 2019, dated 2025)
